Experimental data taken from ChEMBL document CHEMBL3132757, “A new class of fluorinated 5-pyrrolidinylsulfonyl isatin caspase inhibitors for PET imaging of apoptosis” (Medchemcomm, 2013).
pIC50: −log10 of the molar value.

Biological target: T1, Caspase-3 (Homo sapiens, UniProt P42574)
T1 sequence (P42574 whole entry): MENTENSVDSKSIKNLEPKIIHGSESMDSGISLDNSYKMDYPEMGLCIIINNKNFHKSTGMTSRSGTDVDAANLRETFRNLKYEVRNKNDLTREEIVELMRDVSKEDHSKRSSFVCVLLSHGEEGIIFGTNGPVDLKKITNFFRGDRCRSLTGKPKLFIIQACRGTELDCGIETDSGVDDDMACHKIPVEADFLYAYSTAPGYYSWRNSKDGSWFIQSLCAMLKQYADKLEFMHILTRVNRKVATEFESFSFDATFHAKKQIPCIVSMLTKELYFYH
Experiment: Inhibition of recombinant human caspase-3 expressed in Escherichia coli using Ac-DEVD-AMC as substrate preincubated for 30 mins before substrate addition measured after 2 hrs

| SMILES | pIC50 |
| --- | --- |
| O=C1C(=O)N(Cc2ccc(I)cc2)c2ccc(S(=O)(=O)N3CCC[C@H]3CF)cc21 | 8.09 |
| COC[C@@H]1CCCN1S(=O)(=O)c1ccc2c(c1)C(=O)C(=O)N2Cc1ccc(OCCF)cc1 | 8.08 |
| O=C1C(=O)N(Cc2ccccc2[N+](=O)[O-])c2ccc(S(=O)(=O)N3CCC[C@H]3CF)cc21 | 8.51 |
| O=C1C(=O)N(Cc2ccc(F)cc2)c2ccc(S(=O)(=O)N3CCC[C@H]3CF)cc21 | 7.82 |
| O=C1C(=O)N(Cc2ccc(OCCF)cc2)c2ccc(S(=O)(=O)N3CC4CNCC4C3)cc21 (centres undefined) | 5.66 |

The remaining lines, values ahead:

| pIC50 | SMILES |
| --- | --- |
| 7.86 | O=C1C(=O)N(Cc2ccccc2)c2ccc(S(=O)(=O)N3CCC[C@H]3CF)cc21 |
| 7.75 | COC[C@@H]1CCCN1S(=O)(=O)c1ccc2c(c1)C(=O)C(=O)N2Cc1ccc(OC)cc1 |
| 7.94 | O=C1C(=O)N(Cc2cccc(I)c2)c2ccc(S(=O)(=O)N3CCC[C@H]3CF)cc21 |
| 8.20 | O=C1C(=O)N(Cc2ccc([N+](=O)[O-])cc2)c2ccc(S(=O)(=O)N3CCC[C@H]3CF)cc21 |

Test system: not listed separately
Experiment: Lipophilicity, log P of the compound by HPLC method
Format: physicochemical

| SMILES | logP |
| --- | --- |
| O=C1C(=O)N(Cc2ccc(I)cc2)c2ccc(S(=O)(=O)N3CCC[C@H]3CF)cc21 | 3.31 |
| COC[C@@H]1CCCN1S(=O)(=O)c1ccc2c(c1)C(=O)C(=O)N2Cc1ccc(OCCF)cc1 | 2.08 |
| O=C1C(=O)N(Cc2ccccc2[N+](=O)[O-])c2ccc(S(=O)(=O)N3CCC[C@H]3CF)cc21 | 2.28 |
| O=C1C(=O)N(Cc2ccc(F)cc2)c2ccc(S(=O)(=O)N3CCC[C@H]3CF)cc21 | 2.5 |
| O=C1C(=O)N(Cc2ccc(OCCF)cc2)c2ccc(S(=O)(=O)N3CC4CNCC4C3)cc21 (centres undefined) | 1.19 |

Second part, the molecule after the results:

| logP | SMILES |
| --- | --- |
| 2.61 | O=C1C(=O)N(Cc2ccccc2)c2ccc(S(=O)(=O)N3CCC[C@H]3CF)cc21 |
| 2.2 | COC[C@@H]1CCCN1S(=O)(=O)c1ccc2c(c1)C(=O)C(=O)N2Cc1ccc(OC)cc1 |
| 3.21 | O=C1C(=O)N(Cc2cccc(I)c2)c2ccc(S(=O)(=O)N3CCC[C@H]3CF)cc21 |
| 2.39 | O=C1C(=O)N(Cc2ccc([N+](=O)[O-])cc2)c2ccc(S(=O)(=O)N3CCC[C@H]3CF)cc21 |

Biological target: Caspase-8 (Homo sapiens, UniProt Q14790)
Experiment: Inhibition of recombinant human caspase-8 expressed in Escherichia coli using Ac-IETD-AMC as substrate preincubated for 30 mins before substrate addition measured after 2 hrs

Sequence of Caspase-8 (Q14790 217-374 limits assumed): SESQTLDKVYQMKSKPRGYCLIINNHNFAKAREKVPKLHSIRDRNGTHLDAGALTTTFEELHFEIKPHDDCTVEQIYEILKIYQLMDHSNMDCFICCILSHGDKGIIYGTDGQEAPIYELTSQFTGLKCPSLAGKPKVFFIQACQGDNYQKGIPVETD
Sequence of Caspase-8 (Q14790 385-479 limits assumed): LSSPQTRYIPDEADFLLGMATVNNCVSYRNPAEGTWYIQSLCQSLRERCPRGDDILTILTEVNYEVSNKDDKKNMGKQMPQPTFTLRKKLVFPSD

| SMILES | pIC50 |
| --- | --- |
| O=C1C(=O)N(Cc2ccc(I)cc2)c2ccc(S(=O)(=O)N3CCC[C@H]3CF)cc21 | < 5.00 |
| COC[C@@H]1CCCN1S(=O)(=O)c1ccc2c(c1)C(=O)C(=O)N2Cc1ccc(OCCF)cc1 | < 5.00 |
| O=C1C(=O)N(Cc2ccccc2[N+](=O)[O-])c2ccc(S(=O)(=O)N3CCC[C@H]3CF)cc21 | < 5.00 |
| O=C1C(=O)N(Cc2ccc(F)cc2)c2ccc(S(=O)(=O)N3CCC[C@H]3CF)cc21 | < 5.00 |
| O=C1C(=O)N(Cc2ccc(OCCF)cc2)c2ccc(S(=O)(=O)N3CC4CNCC4C3)cc21 (centres undefined) | < 5.00 |

Second part, the molecule after the results:

| pIC50 | SMILES |
| --- | --- |
| < 5.00 | O=C1C(=O)N(Cc2ccccc2)c2ccc(S(=O)(=O)N3CCC[C@H]3CF)cc21 |
| < 5.00 | COC[C@@H]1CCCN1S(=O)(=O)c1ccc2c(c1)C(=O)C(=O)N2Cc1ccc(OC)cc1 |
| < 5.00 | O=C1C(=O)N(Cc2cccc(I)c2)c2ccc(S(=O)(=O)N3CCC[C@H]3CF)cc21 |
| < 5.00 | O=C1C(=O)N(Cc2ccc([N+](=O)[O-])cc2)c2ccc(S(=O)(=O)N3CCC[C@H]3CF)cc21 |

Biological target: T2, Caspase-6 (Homo sapiens, UniProt P55212)
T2 sequence (P55212 whole entry): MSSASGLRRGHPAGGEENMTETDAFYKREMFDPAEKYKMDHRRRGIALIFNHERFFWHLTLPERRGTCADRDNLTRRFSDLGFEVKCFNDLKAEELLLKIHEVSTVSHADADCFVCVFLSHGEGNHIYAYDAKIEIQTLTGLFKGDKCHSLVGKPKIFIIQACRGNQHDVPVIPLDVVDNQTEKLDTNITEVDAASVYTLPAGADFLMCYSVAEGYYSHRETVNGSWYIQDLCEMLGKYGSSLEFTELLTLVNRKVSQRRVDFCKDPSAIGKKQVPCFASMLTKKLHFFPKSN
Experiment: Inhibition of recombinant human caspase-6 expressed in Escherichia coli using Ac-VEID-AMC as substrate preincubated for 30 mins before substrate addition measured after 2 hrs

| SMILES | pIC50 |
| --- | --- |
| O=C1C(=O)N(Cc2ccc(I)cc2)c2ccc(S(=O)(=O)N3CCC[C@H]3CF)cc21 | 5.42 |
| COC[C@@H]1CCCN1S(=O)(=O)c1ccc2c(c1)C(=O)C(=O)N2Cc1ccc(OCCF)cc1 | < 5.00 |
| O=C1C(=O)N(Cc2ccccc2[N+](=O)[O-])c2ccc(S(=O)(=O)N3CCC[C@H]3CF)cc21 | 5.29 |
| O=C1C(=O)N(Cc2ccc(F)cc2)c2ccc(S(=O)(=O)N3CCC[C@H]3CF)cc21 | < 5.00 |
| O=C1C(=O)N(Cc2ccc(OCCF)cc2)c2ccc(S(=O)(=O)N3CC4CNCC4C3)cc21 (centres undefined) | < 5.00 |

Continued, values first:

| pIC50 | SMILES |
| --- | --- |
| < 5.00 | O=C1C(=O)N(Cc2ccccc2)c2ccc(S(=O)(=O)N3CCC[C@H]3CF)cc21 |
| < 5.00 | COC[C@@H]1CCCN1S(=O)(=O)c1ccc2c(c1)C(=O)C(=O)N2Cc1ccc(OC)cc1 |
| < 5.00 | O=C1C(=O)N(Cc2cccc(I)c2)c2ccc(S(=O)(=O)N3CCC[C@H]3CF)cc21 |
| < 5.00 | O=C1C(=O)N(Cc2ccc([N+](=O)[O-])cc2)c2ccc(S(=O)(=O)N3CCC[C@H]3CF)cc21 |

Biological target: T3, Caspase-7 (Homo sapiens, UniProt P55210)
T3 sequence (P55210 whole entry): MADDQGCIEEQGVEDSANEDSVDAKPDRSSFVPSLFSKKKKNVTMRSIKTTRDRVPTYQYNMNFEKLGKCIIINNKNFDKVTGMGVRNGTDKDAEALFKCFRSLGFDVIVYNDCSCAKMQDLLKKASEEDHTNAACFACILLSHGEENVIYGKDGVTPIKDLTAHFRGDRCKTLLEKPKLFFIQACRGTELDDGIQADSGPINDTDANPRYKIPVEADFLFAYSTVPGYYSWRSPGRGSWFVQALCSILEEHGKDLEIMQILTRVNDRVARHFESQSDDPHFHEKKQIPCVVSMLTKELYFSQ
Experiment: Inhibition of recombinant human caspase-7 expressed in Escherichia coli using Ac-DEVD-AMC as substrate preincubated for 30 mins before substrate addition measured after 2 hrs

| SMILES | pIC50 |
| --- | --- |
| O=C1C(=O)N(Cc2ccc(I)cc2)c2ccc(S(=O)(=O)N3CCC[C@H]3CF)cc21 | 8.27 |
| COC[C@@H]1CCCN1S(=O)(=O)c1ccc2c(c1)C(=O)C(=O)N2Cc1ccc(OCCF)cc1 | 8.34 |
| O=C1C(=O)N(Cc2ccccc2[N+](=O)[O-])c2ccc(S(=O)(=O)N3CCC[C@H]3CF)cc21 | 7.70 |
| O=C1C(=O)N(Cc2ccc(F)cc2)c2ccc(S(=O)(=O)N3CCC[C@H]3CF)cc21 | 7.85 |
| O=C1C(=O)N(Cc2ccc(OCCF)cc2)c2ccc(S(=O)(=O)N3CC4CNCC4C3)cc21 (centres undefined) | 5.45 |

Now from value to molecule:

| pIC50 | SMILES |
| --- | --- |
| 7.69 | O=C1C(=O)N(Cc2ccccc2)c2ccc(S(=O)(=O)N3CCC[C@H]3CF)cc21 |
| 8.21 | COC[C@@H]1CCCN1S(=O)(=O)c1ccc2c(c1)C(=O)C(=O)N2Cc1ccc(OC)cc1 |
| 7.66 | O=C1C(=O)N(Cc2cccc(I)c2)c2ccc(S(=O)(=O)N3CCC[C@H]3CF)cc21 |
| 7.95 | O=C1C(=O)N(Cc2ccc([N+](=O)[O-])cc2)c2ccc(S(=O)(=O)N3CCC[C@H]3CF)cc21 |

Biological target: T4, Caspase-1 (Homo sapiens, UniProt P29466)
T4 sequence (P29466 whole entry): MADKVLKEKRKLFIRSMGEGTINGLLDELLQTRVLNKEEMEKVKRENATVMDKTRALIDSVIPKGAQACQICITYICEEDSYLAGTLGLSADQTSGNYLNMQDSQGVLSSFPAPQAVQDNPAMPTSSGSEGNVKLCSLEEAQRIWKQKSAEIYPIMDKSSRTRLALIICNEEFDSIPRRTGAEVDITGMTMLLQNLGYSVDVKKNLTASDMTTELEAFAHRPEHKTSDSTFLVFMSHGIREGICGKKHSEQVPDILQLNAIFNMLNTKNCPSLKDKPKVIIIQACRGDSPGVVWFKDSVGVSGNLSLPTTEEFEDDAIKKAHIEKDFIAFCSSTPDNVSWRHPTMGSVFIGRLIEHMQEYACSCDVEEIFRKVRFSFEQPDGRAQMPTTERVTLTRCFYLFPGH
Experiment: Inhibition of recombinant human caspase-1 expressed in Escherichia coli using Ac-YVAD-AMC as substrate preincubated for 30 mins before substrate addition measured after 2 hrs

| SMILES | pIC50 |
| --- | --- |
| O=C1C(=O)N(Cc2ccc(I)cc2)c2ccc(S(=O)(=O)N3CCC[C@H]3CF)cc21 | < 5.00 |
| COC[C@@H]1CCCN1S(=O)(=O)c1ccc2c(c1)C(=O)C(=O)N2Cc1ccc(OCCF)cc1 | < 5.00 |
| O=C1C(=O)N(Cc2ccccc2[N+](=O)[O-])c2ccc(S(=O)(=O)N3CCC[C@H]3CF)cc21 | 6.17 |
| O=C1C(=O)N(Cc2ccc(F)cc2)c2ccc(S(=O)(=O)N3CCC[C@H]3CF)cc21 | < 5.00 |
| O=C1C(=O)N(Cc2ccc(OCCF)cc2)c2ccc(S(=O)(=O)N3CC4CNCC4C3)cc21 (centres undefined) | < 5.00 |

Further lines, results first:

| pIC50 | SMILES |
| --- | --- |
| < 5.00 | O=C1C(=O)N(Cc2ccccc2)c2ccc(S(=O)(=O)N3CCC[C@H]3CF)cc21 |
| < 5.00 | COC[C@@H]1CCCN1S(=O)(=O)c1ccc2c(c1)C(=O)C(=O)N2Cc1ccc(OC)cc1 |
| 5.77 | O=C1C(=O)N(Cc2cccc(I)c2)c2ccc(S(=O)(=O)N3CCC[C@H]3CF)cc21 |
| < 5.00 | O=C1C(=O)N(Cc2ccc([N+](=O)[O-])cc2)c2ccc(S(=O)(=O)N3CCC[C@H]3CF)cc21 |
